Measured values from patent US20230355558A1 (priority 2022, published 2023).
“Also recorded” adds a separate entry of the source.

How the values were obtained:
[1] = test system: NDV (Newcastle disease virus) strain R2B
[2] = test system: Human neuroblastoma cell line Sh-Sy5y; assay: Cellular toxicity assay (MTT assay), neurotoxicity; conditions: Sh-Sy5y cells, 1 ug/mL, 24 hours
plasmin = plasmin (Homo sapiens, UniProt P00747); assay: Fibrin clot degradation by plasmin (gravimetric, protease inhibition); format: biochemical; conditions: for protease inhibition activity (inhibiting plasmin mediated degradation of fibrin clots): 0-1 mM in fibrin clots, plasmin in PBS buffer; for protease inhibition activity (inhibiting plasmin mediated degradation of fibrin clots) / resistance against fibrin clot degradation by plasmin: up to 48 hours; for resistance against fibrin clot degradation by plasmin: about 0.1 mM, triplicate; for plasmin-mediated degradation of fibrin clots at 3% loading: about 3% loading in fibrin clots; for protease inhibition activity compared with TA (conclusion): fibrin clot / plasmin system; for degradation of the clot: about 16 hours
Sequence of plasmin (P00747 581-810): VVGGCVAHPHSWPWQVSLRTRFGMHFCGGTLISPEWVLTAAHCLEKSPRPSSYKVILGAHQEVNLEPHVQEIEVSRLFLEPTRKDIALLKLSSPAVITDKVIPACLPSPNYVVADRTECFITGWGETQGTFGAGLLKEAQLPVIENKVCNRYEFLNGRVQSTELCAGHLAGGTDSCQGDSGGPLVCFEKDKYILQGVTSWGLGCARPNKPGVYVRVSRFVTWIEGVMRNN
Sequence of plasmin (P00747 97-580): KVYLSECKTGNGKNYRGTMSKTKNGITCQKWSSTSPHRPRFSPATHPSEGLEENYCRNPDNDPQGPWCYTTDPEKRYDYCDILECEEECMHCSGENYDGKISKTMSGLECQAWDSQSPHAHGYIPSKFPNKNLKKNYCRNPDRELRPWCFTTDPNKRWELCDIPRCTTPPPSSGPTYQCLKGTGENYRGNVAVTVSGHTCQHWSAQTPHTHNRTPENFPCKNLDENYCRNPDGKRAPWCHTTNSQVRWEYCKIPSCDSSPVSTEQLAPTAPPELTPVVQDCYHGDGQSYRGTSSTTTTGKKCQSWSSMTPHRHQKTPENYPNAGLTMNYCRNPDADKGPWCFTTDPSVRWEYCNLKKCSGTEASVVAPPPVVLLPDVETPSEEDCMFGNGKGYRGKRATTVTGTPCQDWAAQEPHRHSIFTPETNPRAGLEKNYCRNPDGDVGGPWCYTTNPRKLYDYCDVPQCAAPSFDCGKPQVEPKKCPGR

[3] = Fibrin clot swelling at 3% loading, with and without plasmin; conditions: for fibrin clot swelling in degrading medium prior to degradation: medium containing plasmin; for fibrin clot swelling in non-degrading medium: no plasmin
[4] = Qualitative test for relative solubility

Structure (SMILES) | antiviral activity versus virus control [1] | toxicity to cells treated with compound only [1] | cytotoxicity or neurotoxicity compared with TA [2] | protease inhibition activity (inhibiting plasmin mediated degradation of fibrin clots) (plasmin; pH 7.4, 37° C.) | resistance against fibrin clot degradation by plasmin (plasmin; pH 7.4, 37° C.) | plasmin-mediated degradation of fibrin clots at 3% loading (plasmin) | protease inhibition activity compared with TA (conclusion) (plasmin) | concentration at which efficacious against fibrin clot degradation (plasmin; plasmin, pH 7.4, 37° C.) | fibrin clot swelling in degrading medium prior to degradation [3] | fibrin clot swelling in non-degrading medium [3] | water solubility [4] | solvent needed to dissolve in buffer relative to water ([4]; pH 7.4 100 mM phosphate buffer versus water) | solubility in methanol or propanol ([4]; room temperature) | degradation of the clot (plasmin; 0.1 mM, plasmin, pH 7.4, 37° C.) | degradation of the clot (plasmin; 1 mM, plasmin, pH 7.4, 37° C.)
NCC1CCC(C(=O)[O][Ca][O]C(=O)C2CCC(CN)CC2)CC1 (stereo not shown) [Ca-TA, Calcium bis-tranexamate] | no significant difference between the virus control and treated | no toxicity was observed | comparable cytotoxicity or neurotoxicity results as that of TA | dose-dependent protease inhibition activity; also recorded: exhibit protease inhibition activity | effective resistance | inhibited plasmin-mediated degradation of the fibrin clots for a longer period | comparable to that of TA | ≤ 0.1 mM | more than 50% | more than 50% | water soluble | approximately four times as much solvent | not soluble to a significant degree | – | –
COCC(=O)NCC1CCC(C(=O)O)CC1 (stereo not shown) [MTA, N-(methoxy-acetamido) tranexamic acid] | no significant difference between the virus control and treated | – | reduced neurotoxicity than TA | exhibit protease inhibition activity | – | – | eliminates or significantly reduces protease inhibition activity; also recorded: reduced protease inhibition activity than TA | – | – | – | water soluble | – | – | 100% | about 85.1+/−0.6%
NCC1CCC(C(=O)O)CC1 (stereo not shown) [TA, Tranexamic acid, reference compound] | no significant difference between the virus control and treated | – | – | – | effective resistance | inhibited plasmin-mediated degradation of the fibrin clots for a longer period | – | – | degraded without swelling | did not swell | – | – | – | – | –
